Data: paper PMC5294416, “Novel peptides for deciphering structural and signalling functions of E-cadherin in mouse embryonic stem cells” (Scientific Reports, 2017)
Primed or numbered codes have the meaning given here. Ends that are not written are not given here. FITC′ = fluorescein-5(6)-isothiocyanate; Nova linker = not defined here

Legend:
[1] = test system: OCT4 protein in wtD3 mESCs; experiment: Immunofluorescence microscopy analysis of OCT4 protein expression with pathway inhibitors; format: cell-based, mouse; settings: for OCT4 protein expression, inhibitor with vehicle control: wtD3 mESCs, no peptide, after 5 days
Method: (§1) Unless otherwise stated, mESC lines were grown on gelatinised tissue culture grade 6-well plates at 37 °C/5% CO2, as previously described. mESCs cells were treated with 10 μM peptide in mESC culture medium which was replenished every 24 h. Inhibition of specific pathways in mESCs was achieved by incubation with 10 μM LY294002 (PI3K inhibitor), PD9805 (MEK inhibitor) and SB431542 (TGFβ1 R inhibitor).
(§2) Monolayer cultured mESCs were fixed in situ in 4% w/v PFA in PBS for 30 minutes at room temperature, washed twice with PBS and blocked with 1% goat serum in 0.1% w/v BSA, 0.1% Triton X-100 in PBS for 30 minutes. Cells were incubated in the appropriate primary antibody in goat blocking buffer for two hours at RT. Cells were washed three times in PBS and incubated in the appropriate Alexa fluor-488 or −546 conjugated secondary antibody at RT for 1 hour in the dark. Cells were washed three times with PBS, mounted in 4′6-diamidino-2-phenylindole (DAPI) (Vector Laboratories) and visualized using a Leica DM6000B fluorescence microscope (Leica Microsystems) and processed using Leica LAS X Core software (Leica Microsystems). Primary antibodies: anti-Nanog, 1:200 dilution (ab80892, Abcam Plc, Cambridge, UK); anti-Oct4, 1:200 dilution (ab19857, Abcam Plc, Cambridge, UK). For immunofluorescence microscopy analysis of fluorescent-tagged peptides, cells were incubated in 500 μM peptide in cell culture medium for 15 minutes, washed twice in ice cold PBS and mounted with Vectorshield containing DAPI. Cells were visualized using a Leica DM6000B fluorescence microscope (Leica Microsystems) and processed using Leica LAS X Core software (Leica Microsystems).
(§3) Images were imported into ImageJ and fluorescence intensity measured using the Analyse > Measure function on areas selected using the rectangular or oval selection icons.

wtD3 and Ecad−/− mESCs = experiment: Binding of fluorescent-tagged peptides to wtD3 versus Ecad−/− mESCs; format: cell-based, mouse; settings: fluorescein-tagged peptide, 500 μM, 15 minutes, 37 °C, immunofluorescence microscopy / flow cytometry
Method: D3 and Ecad^−/− mESCs were treated with Epep-F or EpepW2R-F at concentrations of 0 (control), 5, 10, 25, 50 and 500 μM in culture medium as a monolayer on ice. Ice cold conditions were utilised to minimise endocytosis of fluorescent tagged peptide. Cells were harvested using cell dissociation buffer, centrifuged and washed with PBS and fixed in 500 μl 1% w/v paraformaldehyde (PFA) in PBS for analysis using a FACSCalibur (BD Biosciences, California, USA). Viable cells were gated using forward scatter and side scatter and all data shown represents quantification of the fluorescence emitted by this population.
Monolayer cultured mESCs were fixed in situ in 4% w/v PFA in PBS for 30 minutes at room temperature, washed twice with PBS and blocked with 1% goat serum in 0.1% w/v BSA, 0.1% Triton X-100 in PBS for 30 minutes. Cells were incubated in the appropriate primary antibody in goat blocking buffer for two hours at RT. […] Cells were washed three times with PBS, mounted in 4′6-diamidino-2-phenylindole (DAPI) (Vector Laboratories) and visualized using a Leica DM6000B fluorescence microscope (Leica Microsystems) and processed using Leica LAS X Core software (Leica Microsystems). […] Cells were visualized using a Leica DM6000B fluorescence microscope (Leica Microsystems) and processed using Leica LAS X Core software (Leica Microsystems). […]

wtD3 mESCs [2] = experiment: Loss of cell-cell contact, phase contrast microscopy; format: cell-based, mouse; settings: for Effect on cell-cell contact (in words): wtD3 mESCs, 10 μM peptide, 24 h, phase contrast
Method: as §1

[3] = molecular target: T1, recombinant mouse E-Cadherin Fc Chimera (Mus musculus, UniProt P09803); experiment: Biacore SPR equilibrium binding analysis (affinity capture); settings: equilibrium analysis using affinity capture on HTE chip, peptide stock in water, average of three runs, running buffer HBS/0.02% Tween/2 mM CaCl2/1 mM MgCl2
T1 construct: purchased R&D Systems
Method: Biacore SPR analysis was used to measure the interaction between peptides and recombinant mouse E-Cadherin Fc Chimera (R&D Systems). Analytes were passed over an HTE chip with surface bound His-tagged Recombinant Mouse E-Cadherin Fc Chimera (R&D Systems). The kinetics of interaction, i.e. the rates of complex formation (ka) and dissociation (kd), were determined and Integrin α4β7 protein was used as a control. Analysis was performed by the Biomolecular Analysis Core Facility (The University of Manchester, UK) on a Proteon XPR-36 protein interaction array system (Bio-Rad) using a HTE chip for high capacity His-tagged protein capture (Bio-Rad). Equilibrium analysis runs were performed three times and an average KD was calculated. Running buffer: HBS/0.02%, Tween/2 mM, CaCl2/1 mM MgCl2.

pERK1/2 in wtD3 mESCs = experiment: Western blot analysis of phosphorylated ERK1/2; format: cell-based, mouse
[4] = test system: Nanog, Klf4, Tbx3, Esrrb, Nr0b1, Nr5a2 and Tet1 transcripts in wtD3 mESCs; experiment: qPCR analysis of pluripotency transcript expression; format: cell-based, mouse
Method: as §1
Primers for qPCR were designed using the Roche Applied science Universal Probe Library software and BLAST screened for sequence specificity. Only primers producing a single dissociation peak were used. RNA was extracted from mESCs and cDNA at a concentration of 2 ng/μl was used for analysis in a MicroAmp Optical 96-well Reaction Plate (Applied Biosystems) using SYBR green Jumpstart Taq ReadyMix (Applied Biosystems). Primer sequences: 18srRNA Forward (F) […], Reverse (R) […]; ESRRB F-[…], R-[…]; KLF4 F-[…], R-ATGTCCGCCAGGTTGAAG; NANOG F-[…], R-[…]; NR0B1 F-[…], R-[…]; NR5A2 F-[…], R-[…]; TBX3 F-[…], R-[…]; TET1 F-[…], R-[…].

[5] = test system: STAT3 phosphorylation in wtD3 mESCs; experiment: Western blot analysis of phosphorylated STAT3; format: cell-based, mouse; settings: wtD3 mESCs vs control treated cells, western blot
Method: as §1
Cells were harvested using cell dissociation buffer, centrifuged and washed with PBS prior to lysis using Radioimmunoprecipitation (RIPA) buffer (Sigma) containing protease inhibitor cocktail tablets (1 tablet per 10 ml RIPA buffer) (Roche Applied Science) at a concentration of 2 × 10^7 cell/ml. Lysates were separated by SDS-PAGE and electrotransferred onto nitrocellulose membrane as previously described. The membrane was probed using the appropriate primary antibody with subsequent incubation with HRP-conjugated secondary antibody. The membrane was exposed to an autoradiographic film (Hyperfilm ECL, GE Healthcare, Amersham, UK) for the appropriate time period in an X-ray cassette before the film was manually developed in a dark room using Kodak GBX developer and fixer solutions (Sigma, Dorset, UK). Primary antibodies: anti-α-tubulin, 1:2000 dilution (T9026, Sigma, Dorset, UK); anti-AKT, 1:200 dilution (#9272, Cell Signalling Technology, MA, USA); anti-pAKT (Ser473), 1:200 (#4060S, Cell Signalling Technology, MA, USA); anti-STAT3, 1:200 dilution (SC-482, Santa Cruz Biotechnology Inc, TX, USA); anti-pSTAT3, 1:200 dilution (#9138S, Cell Signalling Technology, MA, USA).

[6] = test system: NANOG protein in wtD3 mESCs; experiment: Immunofluorescence microscopy analysis of NANOG protein expression; format: cell-based, mouse; settings: 96 h / 4 days where stated
Method: as §2, with “For immunofluorescence microscopy analysis of fluorescent-tagged peptides, cells were incubated in 500 μM peptide in cell culture medium for 15 minutes, washed twice in ice cold PBS and mounted with Vectorshield containing DAPI.” left out
as §3

mESCs = experiment: Cell viability in monolayer culture; format: cell-based, mouse; settings: data not shown
wtD3 mESCs [7] = format: cell-based; settings: 24 h, 10 μM
Description: Cell viability was quantified using an Alexa Fluor 488 Annexin V/Dead Cell Apoptosis Kit (Invitrogen) according to the manufacturer’s instructions.

[8] = Water solubility of peptides; format: physicochemical
Method: All peptides were synthesised by Severn Biotech Ltd (UK) as a lyophilized powder. Peptides were solubilised to a stock solution of 100 mM in ddH20, unless otherwise stated. Peptides were tagged with a Fluorescin-5(6) molecule at the NH2-terminus, separated by a Nova linker molecule, and assessed for activity prior to use (inhibition of cell-cell contact).

[9] = molecular target: T2, His-tagged Recombinant Mouse E-Cadherin Fc Chimera, P09803; experiment: Biacore SPR equilibrium affinity capture analysis; settings: chain shown with the change
T2 chain: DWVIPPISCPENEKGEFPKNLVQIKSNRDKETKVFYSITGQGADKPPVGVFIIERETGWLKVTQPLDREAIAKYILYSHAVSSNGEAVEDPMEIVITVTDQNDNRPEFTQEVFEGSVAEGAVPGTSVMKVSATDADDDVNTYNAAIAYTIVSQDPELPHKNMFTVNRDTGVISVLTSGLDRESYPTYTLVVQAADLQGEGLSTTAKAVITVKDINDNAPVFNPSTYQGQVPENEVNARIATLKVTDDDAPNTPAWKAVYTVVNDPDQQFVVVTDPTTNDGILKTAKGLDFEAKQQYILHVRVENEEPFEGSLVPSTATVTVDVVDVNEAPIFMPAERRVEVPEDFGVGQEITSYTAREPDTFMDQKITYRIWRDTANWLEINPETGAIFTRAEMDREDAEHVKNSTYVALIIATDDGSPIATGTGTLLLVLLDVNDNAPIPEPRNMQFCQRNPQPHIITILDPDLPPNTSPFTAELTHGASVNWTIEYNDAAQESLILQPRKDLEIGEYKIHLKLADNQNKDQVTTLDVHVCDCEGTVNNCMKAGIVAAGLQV

[10] = molecular target: His-tagged Recombinant Mouse E-Cadherin Fc Chimera (mouse) (UniProt P09803); experiment: SPR; as a1, E-cadherin-Fc captured on the HTE chip; peptide dissolved in 10%v/v DMSO/H2O; EpepP7R at 0.3, 1, 3, 5, 10 μM; equilibrium analysis
[11] = transcript, mESCs, Fig. 6a summary

NC(=O)c1ccc(-c2nc(-c3ccc4c(c3)OCO4)c(-c3ccccn3)[nH]2)cc1 [SB431542]
OCT4 protein expression, inhibitor with vehicle control [1]: maintained expression of OCT4 protein

Cc1c[nH]c(/C=C2\C(=O)Nc3ccccc32)c1CCC(=O)O [SU5402]
OCT4 protein expression, inhibitor with vehicle control [1]: maintained expression of OCT4 protein

Epep-F: Epep with fluorescein-5(6)-isothiocyanate label conjugated to the NH2-terminus via a Nova linker ({FITC′-Nova linker}-SWELYYPLRANL; reading uncertain)
Binding of fluorescent-tagged peptide to wtD3 versus Ecad−/− mESCs (wtD3 and Ecad−/− mESCs): preferential binding to wtD3 ESCs
Effect on cell-cell contact (in words) (wtD3 mESCs [2]): loss of cell-cell contact

SAELYYPLRANL [EpepW2A]
Kd [3]: 55 µM

SRELYYPLRANL [EpepW2R, Epep with the Trp-2 residue replaced with arginine, …]
pERK1/2 compared to untreated mESCs (pERK1/2 in wtD3 mESCs): decreased pERK1/2
OCT4 protein expression in the presence of SU5402 ([1]; peptide-treated wtD3 mESCs plus FGFR1 inhibitor SU5402, after 5 days): increased cell death and statistically significant loss of OCT protein expression
Loss of Nanog [4, 11]: YES
Loss of Nr0b1 [4, 11]: YES
Loss of Nr5a2 [4, 11]: YES
Loss of TBX3 [4, 11]: YES
Transcripts with decreased expression compared to control (qPCR) ([4]; wtD3 mESCs, 10 μM peptide, 24 h): Nanog, Tbx3, Nr0b1 and Nr5a2
Transcripts unchanged / not inhibited (qPCR) ([4]; wtD3 mESCs, 24 h treatment): Klf4 and Esrrb
Binding of fluorescent-tagged peptide to wtD3 versus Ecad−/− mESCs (wtD3 and Ecad−/− mESCs): binds specifically to E-cadherin
KD [3]: did not produce a strong enough response to perform equilibrium analysis
Effect on STAT3 phosphorylation (in words) [5]: unaffected
NANOG protein expression [6]: decreased levels of protein
Effect on cell-cell contact (in words) (wtD3 mESCs [2]): did not induce loss of cell-cell contact
cell viability in monolayer culture (mESCs): no significant difference in cell viability

SWALYYPLRANL [EpepE3A]
Kd [3]: 6.9 µM

SWEAYYPLRANL [EpepL4A]
Kd [3]: 3.61 µM

SWELAYPLRANL [EpepY5A]
Kd [3]: 8.82 µM

SWELYAPLRANL [EpepY6A]
Kd [3]: 21.4 µM

SWELYYP [EpepΔCtm]
Kd [3]: 2.7 µM
viable population (lower left box) (wtD3 mESCs [7]): 59.1%

SWELYYRLRANL-NH2 (C-terminus assumed) [EpepP7R]
solvent required for complete solubilization ([8]; 100 mM stock): 10%v/v DMSO/H2O
solubility in water ([8]; lyophilized powder, stock in water): < 100 mM
Loss of cell-cell contact (10μM)? (wtD3 mESCs [2]; mESCs, 10 μM, Fig. 6a summary): YES
Effect on cell-cell contact (in words) (wtD3 mESCs [2]): Abrogation of E-cadherin mediated cell-cell contact was observed with EpepP7R (Fig. 5c and Figure S1b), although cell dissociation was reduced compared to Epep

AWELYYPLRANL [Epep (E-cadherin binding peptide H-…-NH2) S1A]
Kd [9]: 1.19 µM

SWELYYRLRANL [EpepP7R]
Kd [10]: 3.87 µM
